Results on four molecules are retold here after ChEMBL document CHEMBL1201862, “PubChem BioAssay data set” (2004).

Molecules are shown by their SMILES.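 Dose response: 5 concentrations. Exposure: 48 h. Format: 96-well plates. Endpoint: linear interpolation; highest concentration if not reached. The concentration for 50% growth inhibition is given as GI50.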 Calls of active or inactive are those of the source. Rule as the data show it: active = GI50 up to about 1.1 µM and inactive = higher.

Test systems include DMS-114; DMS-273; HCT-15; IGROV-1; KM12; LOX IMVI; LXFL 529; NCI-H460; RXF 393; SF-268; SK-MEL-2; SNB-19; SW-620; TK-10; UACC-257; XF498; Hs-578T; MCF7; MDA-MB-231.
What all share (experiment): NCI-60 cell line screen, 48 h

For `COc1cccc(/C=C/C(=O)c2sc(C(N)=S)nc2C)c1O`, the GI50 is 50.6 µM (inactive) in the assay with DMS-114; 28.6 µM (inactive) in the assay with DMS-273; 26.1 µM with HCT-15; > 61.5 µM (inactive) with IGROV-1; > 62.2 µM (inactive) in the assay with KM12; 22.4 µM (inactive) in the assay with LOX IMVI. Besides, the GI50 was 14.3 µM (inactive) in the assay with LXFL 529; > 76.4 µM (inactive) with NCI-H460; > 74.3 µM (inactive) in the assay with RXF 393; > 86.3 µM (inactive) in the assay with SF-268; > 100 µM (inactive) in the assay with SK-MEL-2; > 100 µM (inactive) with SNB-19. Further, the GI50 was 21.2 µM (inactive) in the assay with SW-620, > 100 µM (inactive) with TK-10, > 100 µM (inactive) in the assay on UACC-257 and > 100 µM (inactive) in the assay with XF498.
With `CC1=C(C(=O)Nc2ccccc2C)C(c2ccc(Cl)c(Cl)c2)C(C(=O)Nc2ccccc2C)=C(C)N1`, the GI50 is 17.4 µM (inactive) in the assay with DMS-114; 16.7 µM (inactive) in the assay with DMS-273; 17.2 µM in the assay with HCT-15; 19 µM (inactive) in the assay with IGROV-1; 26.2 µM (inactive) in the assay on KM12; 20.9 µM (inactive) with LOX IMVI. The GI50 in the assay on LXFL 529 was 14.4 µM (inactive); with NCI-H460 it was 15.8 µM (inactive); with RXF 393 it was 20.1 µM (inactive); with SF-268, 20.3 µM (inactive); in the assay on SK-MEL-2, 16.1 µM (inactive); in the assay with SNB-19, 44.2 µM (inactive). For the same molecule, the GI50 in the assay on SW-620 is 31.6 µM (inactive); in the assay on TK-10, 21.7 µM (inactive); in the assay on UACC-257, 19.9 µM (inactive); in the assay on XF498 it was 26.2 µM (inactive).
On to `COc1ccc2c(c1)c(=O)c1ccccc1n2/C=C/C(=O)O`, for which the GI50 in the assay on DMS-114 is > 83.6 µM (inactive); in the assay with DMS-273, > 41.3 µM (inactive); in the assay on HCT-15 it was > 100 µM; in the assay with IGROV-1, > 100 µM (inactive); with KM12, > 100 µM (inactive); in the assay on LOX IMVI, > 46.9 µM (inactive). Moreover, the GI50 with LXFL 529 is > 100 µM (inactive); with NCI-H460, > 100 µM (inactive); in the assay on RXF 393 it was > 79.4 µM (inactive); in the assay with SF-268 it was > 68.2 µM (inactive); with SK-MEL-2, > 100 µM (inactive); in the assay on SNB-19, > 100 µM (inactive). Moreover, the GI50 with SW-620, with TK-10, in the assay with UACC-257 and in the assay with XF498 was > 100 µM (inactive) in each case.
Consider `C/C(=N\N=C(/S)N1CCCCCC1)c1cccc[n+]1[O-]`, for which the GI50 was 0.0198 µM (active) in the assay on DMS-114; 1.87 µM (inactive) with DMS-273; 0.845 µM in the assay on HCT-15; 33 µM (inactive) with Hs-578T; 1.91 µM (inactive) in the assay with IGROV-1; 4.52 µM (inactive) in the assay on KM12. Also, the GI50 is 4.52 µM (inactive) in the assay on LOX IMVI; 0.348 µM (active) in the assay with LXFL 529; 2.64 µM (inactive) in the assay on MCF7; 7.59 µM (inactive) in the assay on MDA-MB-231; 1.8 µM (inactive) with NCI-H460; 18.4 µM (inactive) in the assay on RXF 393. The GI50 is 9.29 µM (inactive) with SF-268; 2.37 µM (inactive) in the assay with SK-MEL-2; 7.41 µM (inactive) with SNB-19; 1.64 µM (inactive) with SW-620; 21.5 µM (inactive) with TK-10; 1.33 µM (inactive) with UACC-257. Besides, the GI50 in the assay with XF498 is 5.27 µM (inactive).
